For the assay, the target named is Glycylpeptide N-tetradecanoyltransferase 1 (Homo sapiens) (UniProt P30419). The experiment in a line: Inhibition of recombinant N-terminal his-6 tagged human NMT expressed in Escherichia coli BL21 (DE3)pLysS using peptide substrate preincubated for 5 mins followed by substrate addition and measured after 30 mins by scintillation proximity assay.

The structures appear in SMILES notation.

Sequence of Glycylpeptide N-tetradecanoyltransferase 1 (Homo sapiens) (P30419 whole entry, looked up): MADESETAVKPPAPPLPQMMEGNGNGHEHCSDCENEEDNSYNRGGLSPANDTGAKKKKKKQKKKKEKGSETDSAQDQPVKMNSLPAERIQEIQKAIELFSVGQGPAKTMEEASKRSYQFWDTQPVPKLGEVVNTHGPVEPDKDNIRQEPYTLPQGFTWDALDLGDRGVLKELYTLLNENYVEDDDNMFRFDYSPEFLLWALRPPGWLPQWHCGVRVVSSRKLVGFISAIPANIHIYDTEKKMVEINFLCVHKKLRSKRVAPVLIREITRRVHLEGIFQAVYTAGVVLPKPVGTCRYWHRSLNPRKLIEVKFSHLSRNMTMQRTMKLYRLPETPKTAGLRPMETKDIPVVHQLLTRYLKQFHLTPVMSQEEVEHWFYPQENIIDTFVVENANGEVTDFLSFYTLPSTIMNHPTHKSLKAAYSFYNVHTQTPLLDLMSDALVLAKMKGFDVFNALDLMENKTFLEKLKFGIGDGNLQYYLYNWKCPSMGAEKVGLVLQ

What is called IC50 is the concentration that gives 50% inhibition. As for `O=C(Nc1nc2ccccc2s1)[C@H]1CC[C@@H](NCc2ccc3ccccc3c2)CC1`, the IC50 was determined as 286 µM.

Regarding `O=C(Nc1nc2cc(F)ccc2s1)[C@H]1CC[C@@H](NCc2ccc3ccccc3c2)CC1`, the IC50 stood at 656 µM.

In the case of `CN(C)C(=O)c1ccc2nc(NC(=O)[C@@H]3CCC[C@H](NCc4ccc5ccoc5c4)C3)sc2c1`, the half-inhibitory concentration (IC50) was 656 µM.

The record behind these values is BindingDB's records for PubMed 37336067 (State University of Paraiba).
